This passage reports IC50 results from PMC12188521 (RSC Advances, 2025).

As a reminder, the IC50 is the point on the concentration scale where inhibition reaches its midpoint. Higher therefore signals weaker potency in that assay.

Experiment [1] concerns the target acetylcholinesterase (AChE) (Homo sapiens, UniProt P22303). In words: biochemical.
The target of experiment [2] is butyrylcholinesterase (BuChE) (Homo sapiens, UniProt P06276). In words: In vitro butyrylcholinesterase inhibitory activity. The experiment is classed as biochemical.
Chain of butyrylcholinesterase (BuChE) (P06276 29-602): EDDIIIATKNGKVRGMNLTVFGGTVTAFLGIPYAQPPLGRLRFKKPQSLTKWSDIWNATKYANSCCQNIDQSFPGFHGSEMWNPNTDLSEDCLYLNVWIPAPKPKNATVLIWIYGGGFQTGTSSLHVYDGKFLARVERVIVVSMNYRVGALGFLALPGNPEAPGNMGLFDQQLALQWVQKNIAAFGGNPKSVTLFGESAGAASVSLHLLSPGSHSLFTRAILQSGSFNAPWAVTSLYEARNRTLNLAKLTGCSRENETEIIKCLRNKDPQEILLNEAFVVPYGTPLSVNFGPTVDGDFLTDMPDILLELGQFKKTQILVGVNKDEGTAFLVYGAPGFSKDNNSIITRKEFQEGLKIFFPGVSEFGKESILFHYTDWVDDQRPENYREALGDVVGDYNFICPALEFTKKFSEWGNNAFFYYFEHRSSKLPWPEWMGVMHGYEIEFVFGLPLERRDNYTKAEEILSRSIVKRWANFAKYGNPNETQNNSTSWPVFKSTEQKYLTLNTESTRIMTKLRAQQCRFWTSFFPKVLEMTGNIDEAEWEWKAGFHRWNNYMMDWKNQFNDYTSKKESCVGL

Chain of acetylcholinesterase (AChE) (P22303 32-614, species assumed): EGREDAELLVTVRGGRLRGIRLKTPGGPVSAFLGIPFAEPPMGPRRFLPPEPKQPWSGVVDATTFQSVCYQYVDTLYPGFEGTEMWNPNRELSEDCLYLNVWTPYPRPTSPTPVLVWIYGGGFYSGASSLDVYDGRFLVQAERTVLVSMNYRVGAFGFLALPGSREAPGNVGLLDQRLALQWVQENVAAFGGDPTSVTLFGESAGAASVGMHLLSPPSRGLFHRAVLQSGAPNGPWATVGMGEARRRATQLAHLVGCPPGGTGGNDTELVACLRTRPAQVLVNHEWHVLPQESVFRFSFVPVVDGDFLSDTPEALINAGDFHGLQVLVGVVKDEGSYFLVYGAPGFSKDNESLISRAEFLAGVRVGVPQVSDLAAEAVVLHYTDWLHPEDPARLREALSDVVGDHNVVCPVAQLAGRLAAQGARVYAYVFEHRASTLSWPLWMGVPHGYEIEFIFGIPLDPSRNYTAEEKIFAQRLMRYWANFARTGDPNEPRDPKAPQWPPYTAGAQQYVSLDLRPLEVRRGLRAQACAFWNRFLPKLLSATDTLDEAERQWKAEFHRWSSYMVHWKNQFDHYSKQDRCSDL

As to `CCN(CC)c1ccc(C=NN=C(C)c2ccc(OCc3ccc(Br)cc3)cc2)cc1` [Compound 2a, 4-(((1-(4-((4-bromobenzyl)oxy)phenyl)ethylidene)hydrazineylidene)methyl)-N,N-diethylaniline], the IC50 in experiment [1] came to 44.36 ± 0.33 µM; in experiment [2], 77.9 ± 1.46 µM.

For `COc1cccc(C=NN=C(C)c2ccc(OCc3ccc(Br)cc3)cc2)c1O` [Compound 2b, 2-(((1-(4-((4-Bromobenzyl)oxy)phenyl)ethylidene)hydrazono)methyl)-6-methoxyphenol], the IC50 in experiment [1] stood at 18.6 ± 0.21 µM; in experiment [2] it was 35.31 ± 0.01 µM.

For `CC(=NN=Cc1ccc(Br)cc1F)c1ccc(OCc2ccc(Br)cc2)cc1` [Compound 2c, 1-(4-Bromo-2-fluorobenzylidene)-2-(1-(4-((4-bromobenzyl)oxy)phenyl)ethylidene)hydrazine], the IC50 stood at 150 ± 2.26 µM in experiment [1] and 175 ± 2.96 µM in experiment [2].

`CC(=NN=Cc1ccc(Cl)cc1)c1ccc(OCc2ccc(Br)cc2)cc1` [Compound 2d, 1-(1-(4-((4-Bromobenzyl)oxy)phenyl)ethylidene)-2-(4-chlorobenzylidene)hydrazine]: the IC50 in experiment [1] worked out at 139 ± 2.33 µM; in experiment [2] it was 161.8 ± 0.07 µM.

Regarding `CC(=NN=Cc1ccc(C)o1)c1ccc(OCc2ccc(Br)cc2)cc1` [Compound 2e, 1-(1-(4-((4-Bromobenzyl)oxy)phenyl)ethylidene)-2-((5-methylfuran-2-yl)methylene) hydrazine], the IC50 in experiment [1] is 98.21 ± 0.01 µM; in experiment [2] it was 136 ± 2.61 µM.

As to `COc1ccc(C=NN=C(C)c2ccc(OCc3ccc(Br)cc3)cc2)cc1` [Compound 2f, 1-(1-(4-((4-Bromobenzyl)oxy)phenyl)ethylidene)-2-(4-methoxybenzylidene)hydrazine], the values for the IC50 in experiment [1] and in experiment [2] were 48.37 ± 0.06 µM and 76.3 ± 1.17 µM, respectively.

As to `CC(=NN=Cc1ccc(C)cc1)c1ccc(OCc2ccc(Br)cc2)cc1` [Compound 2g, 1-(1-(4-((4-Bromobenzyl)oxy)phenyl)ethylidene)-2-(4-methylbenzylidene)hydrazine], the figures for the IC50 in experiment [1] and in experiment [2] were 62.28 ± 0.42 µM and 98.7 ± 1.18 µM, respectively.

Take `CC(=NN=Cc1cccc2ccccc12)c1ccc(OCc2ccc(Br)cc2)cc1` [Compound 2h, 1-(1-(4-((4-Bromobenzyl)oxy)phenyl)ethylidene)-2-(naphthalen-1-ylmethylene)hydrazine]: the figures for the IC50 in experiment [1] and in experiment [2] were 128.2 ± 0.98 µM and 166.3 ± 1.2 µM, respectively.

Regarding `CC(=NN=Cc1ccc(C=O)cc1)c1ccc(OCc2ccc(Br)cc2)cc1` [Compound 2i, 4-(((1-(4-((4-Bromobenzyl)oxy)phenyl)ethylidene)hydrazono)methyl)benzaldehyde], the IC50 in experiment [1] stood at 141.8 ± 0.77 µM; in experiment [2], 177 ± 3.53 µM.
